According to patent publication US6979732B1, “Polynucleotide compositions encoding S-adenosyl-L-methionine:phosphoethanolamine N-methyltransferase and methods for modulating lipid biosynthesis in plants” (University of Florida, priority 2000, dated 2005):

Tests used:
PEAMT [1] = target: T1, PEAMT (Spinacia oleracea, UniProt Q9M571); assay: PEAMT activity assay with extracts of S. pombe Bx22 cells expressing recombinant wild type PEAMT; type: biochemical; conditions: for inhibition of PEAMT activity (in words): metabolite at 2 mM
T1 construct: The PEAMT cDNA comprises a 494-residue open reading frame; made in house; host or cells: Schizosaccharomyces pombe Bx22 (leu1 cho2-) carrying pREP3-PEAMT; desalted crude extract, not purified
T1 sequence (Q9M571 1-494): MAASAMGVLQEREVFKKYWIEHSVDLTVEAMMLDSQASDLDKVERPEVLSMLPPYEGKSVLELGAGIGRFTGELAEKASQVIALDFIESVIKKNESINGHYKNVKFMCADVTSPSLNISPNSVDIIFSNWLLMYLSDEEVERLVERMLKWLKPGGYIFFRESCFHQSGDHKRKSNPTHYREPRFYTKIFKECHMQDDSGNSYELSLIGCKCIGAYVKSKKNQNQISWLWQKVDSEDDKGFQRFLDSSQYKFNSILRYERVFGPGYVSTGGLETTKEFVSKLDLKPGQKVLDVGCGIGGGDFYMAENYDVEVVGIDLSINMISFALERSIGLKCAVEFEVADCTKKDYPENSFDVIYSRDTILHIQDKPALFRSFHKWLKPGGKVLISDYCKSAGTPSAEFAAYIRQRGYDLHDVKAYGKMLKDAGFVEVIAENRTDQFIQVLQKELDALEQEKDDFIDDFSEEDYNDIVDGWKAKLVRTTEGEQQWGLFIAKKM
Procedure: Cells were grosn to an OD600 of ≈1 in 50 ml of medium at 30° C., shaking at 250 rpm. […] Subsequent operations were at 0-4° C. Cells were harvested by centrifugation (5000×g, 10 min), washed twice with water and once with 100 mM HEPES-KOH, pH 7.8, resuspended in 0.5 ml of lysis buffer (100 mM HEPES-KOH, pH 7.8, 2 mM Na2EDTA, 5 mM dithiothreitol, 10% glycerol) and transferred to 2-ml microfuge tubes containing ≈1.5 g of acid-washed glass beads (425-600 μm). Cells were broken by vortexing at maximum speed for 2 min. The brei was centrifuged (16,000×g, 2 min), the supernatant was removed and the beads were washed with 3×1 ml of lysis buffer. The combined supernatants were clarified by centrifugation (16,000×g, 15 min) and desalted on a PD-10 column (Amersham Pharmacia Biotech, Piscataway, N.J.) equilibrated with storage buffer (10 mM HEPES-KOH, pH 7.8, 2 mM Na2EDTA, 5 mM dithiotreitol, 10% glycerol). The extract was aliquotted, frozen in liquid N2 and stored at […]. Spinach leaf extracts were prepared as described (Summers and […], 1993). Protein was determined using the Bio-Rad dye reagent (Hercules, Calif.). Native molecular mass was estimated using a Waters 626 HPLC system (Milford, Mass.) equipped with a Superdex 200 HR 10/30 column (Amersham Pharmacia Biotech) as described ([…] al., 1995). PEAMT activity was measured by a modification of published methods (Datko and Mudd, 1988b; Summers and […], 1993), under conditions in which product formation was proportional to enzyme concentration and time. […] Reactions were stopped by adding 1 ml of ice-cold water; each was applied to a 1-ml AG-50 (HR^+) column held at 4° C. and the assay tube was rinsed with 1 ml of water, which was also applied to the column. Products were eluted with 10 ml of 0.1 N HCl, and 2 ml of the eluate was mixed with 3 ml of Ready Gel scintillation fluid (Beckman, Palo Alto, Calif.) and counted. For assay blanks, enzyme was omitted during incubation and added just before the ion exchange step.

ΔPEAMT = target: T2, ΔPEAMT (Spinacia oleracea, UniProt Q9M571); assay: PEAMT activity assay with extracts of S. pombe Bx22 cells expressing truncated ΔPEAMT; type: biochemical
T2 construct: made in house; host or cells: Schizosaccharomyces pombe Bx22 (leu1 cho2-) carrying pREP3-ΔPEAMT; desalted crude extract, not purified
T2 sequence (Q9M571 with tags, fused parts or gaps): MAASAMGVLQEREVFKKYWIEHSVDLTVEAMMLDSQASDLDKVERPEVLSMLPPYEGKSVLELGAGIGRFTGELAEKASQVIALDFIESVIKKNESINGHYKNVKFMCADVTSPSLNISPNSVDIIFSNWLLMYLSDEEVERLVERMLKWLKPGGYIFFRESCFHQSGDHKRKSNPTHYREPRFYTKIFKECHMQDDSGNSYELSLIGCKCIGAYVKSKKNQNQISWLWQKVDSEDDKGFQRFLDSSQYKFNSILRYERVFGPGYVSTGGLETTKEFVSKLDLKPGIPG
Procedure: The plasmid encoding PEAMT, designated pREP3-PEAMT, was digested with BamHI and end-polished with T4 DNA polymerase. The 3'-sequence of PEAMT was removed by digestion with MscI; the remaining sequence plus vector was gel-purified and religated to give ΔPEAMT. In ΔPEAMT the native coding sequence terminates at […], and the pREP3 polylinker adds the sequence […] to the carboxyl-terminus. Cells were grosn to an OD600 of ≈1 in 50 ml of medium at 30° C., shaking at 250 rpm. […] Subsequent operations were at 0-4° C. Cells were harvested by centrifugation (5000×g, 10 min), washed twice with water and once with 100 mM HEPES-KOH, pH 7.8, resuspended in 0.5 ml of lysis buffer (100 mM HEPES-KOH, pH 7.8, 2 mM Na2EDTA, 5 mM dithiothreitol, 10% glycerol) and transferred to 2-ml microfuge tubes containing ≈1.5 g of acid-washed glass beads (425-600 μm). Cells were broken by vortexing at maximum speed for 2 min. The brei was centrifuged (16,000×g, 2 min), the supernatant was removed and the beads were washed with 3×1 ml of lysis buffer. The combined supernatants were clarified by centrifugation (16,000×g, 15 min) and desalted on a PD-10 column (Amersham Pharmacia Biotech, Piscataway, N.J.) equilibrated with storage buffer (10 mM HEPES-KOH, pH 7.8, 2 mM Na2EDTA, 5 mM dithiotreitol, 10% glycerol). The extract was aliquotted, frozen in liquid N2 and stored at […]. Spinach leaf extracts were prepared as described (Summers and […], 1993). Protein was determined using the Bio-Rad dye reagent (Hercules, Calif.). Native molecular mass was estimated using a Waters 626 HPLC system (Milford, Mass.) equipped with a Superdex 200 HR 10/30 column (Amersham Pharmacia Biotech) as described ([…] al., 1995). PEAMT activity was measured by a modification of published methods (Datko and Mudd, 1988b; Summers and […], 1993), under conditions in which product formation was proportional to enzyme concentration and time. […] Products were eluted with 10 ml of 0.1 N HCl, and 2 ml of the eluate was mixed with 3 ml of Ready Gel scintillation fluid (Beckman, Palo Alto, Calif.) and counted. […]

PEAMT [2] = target: T1, PEAMT; assay: AdoMet:Ptd-EA N-methyltransferase activity assay of the complemented strain; type: biochemical; conditions: complemented strain extract
Procedure: (§1) AdoMet:EA N-methyltransferase activity was assayed as above except that reactions contained 200 nmol EA and 160 nmol (40 nCi) of [methyl-^14C]AdoMet. The [methyl-^14C]AdoMet was removed by treating with activated charcoal and centrifuging (Cook and Wagner, 1984), and ^14C-incorporation into freebase products was measured by counting a sample of the supernatant. […] For assay blanks, EA was omitted. AdoMet:Ptd-EA N-methyltransferase activity was measured essentially as described (Datko and Mudd, 1988b). Assays (final volume 100 μl) contained 9 μl 10X assay buffer, 0.8 nmol (47 nCi) [methyl-^14C]AdoMet, 10 μl of a Ptd-EA emulsion in 1× assay buffer (10 mg ml^−1, sonicated for 3×30 sec), and enzyme extract; incubation was for 30 min at 30° C. The phospholipid fraction was isolated for ^14C quantification as described (Datko and Mudd, 1988b) except that the methanol:chloroform:water proportions were 12:5:1 (vol./vol./vol.). Data were corrected for the ^14C incorporation in control assays containing extract from Bx22 cells.

PEAMT [3] = target: T1, PEAMT; assay: AdoMet:EA N-methyltransferase activity assay of the complemented strain; type: biochemical; conditions: complemented strain extract
Procedure: as §1

[4] = substrate: NCCOP(=O)(O)O; assay: PEAMT activity assay with extracts of S. pombe Bx22 cells expressing recombinant wild type PEAMT; type: biochemical, Spinacia oleracea; conditions: other: recombinant PEAMT, substrate
Procedure: Cells were grosn to an OD600 of ≈1 in 50 ml of medium at 30° C., shaking at 250 rpm. […] Subsequent operations were at 0-4° C. Cells were harvested by centrifugation (5000×g, 10 min), washed twice with water and once with 100 mM HEPES-KOH, pH 7.8, resuspended in 0.5 ml of lysis buffer (100 mM HEPES-KOH, pH 7.8, 2 mM Na2EDTA, 5 mM dithiothreitol, 10% glycerol) and transferred to 2-ml microfuge tubes containing ≈1.5 g of acid-washed glass beads (425-600 μm). Cells were broken by vortexing at maximum speed for 2 min. The brei was centrifuged (16,000×g, 2 min), the supernatant was removed and the beads were washed with 3×1 ml of lysis buffer. The combined supernatants were clarified by centrifugation (16,000×g, 15 min) and desalted on a PD-10 column (Amersham Pharmacia Biotech, Piscataway, N.J.) equilibrated with storage buffer (10 mM HEPES-KOH, pH 7.8, 2 mM Na2EDTA, 5 mM dithiotreitol, 10% glycerol). […] Protein was determined using the Bio-Rad dye reagent (Hercules, Calif.). […] PEAMT activity was measured by a modification of published methods (Datko and Mudd, 1988b; Summers and […], 1993), under conditions in which product formation was proportional to enzyme concentration and time. […] Products were eluted with 10 ml of 0.1 N HCl, and 2 ml of the eluate was mixed with 3 ml of Ready Gel scintillation fluid (Beckman, Palo Alto, Calif.) and counted. […]

[5] = 3-hr incubation, small quantity of P-EA, 5-fold excess of [methyl-14C]AdoMet

Molecule: S-adenosyl-L-methionine:phosphoethanolamine N-methyltransferase [PEAMT]
- PEAMT activity in the absence of P-Cho (PEAMT [1]; 25 μg protein, 10 min, 50 nmol P-EA, 170 nmol AdoMet): 737±18 pkat mg^−1 protein
- reaction product (PEAMT [1]; [5]): almost solely [^14C]P-Cho
- specific activity of PEAMT in extracts of complemented cells relative to spinach leaves (PEAMT [1]; FIG. 2A): up to 80 fold
- pH optimum of PEAMT activity (PEAMT [1]; recombinant PEAMT): 8.1-8.5

Molecule: C[N+](C)(C)CC(=O)[O-] [GlyBet, glycine betaine]
- inhibition of PEAMT activity (in words) (PEAMT [1]): not inhibitory

Molecule: C[N+](C)(C)CCOP(=O)([O-])O [P-Cho, phosphocholine]
- reduction of PEAMT activity (PEAMT [1]; 2 mM P-Cho, 50 nmol P-EA, 170 nmol [methyl-14C]AdoMet, 10 min): 80%
- inhibition at 10000 µM (PEAMT [1]; 10 mM P-Cho, saturating P-EA concentration, read-out: reduction (inhibition) of PEAMT activity): 95%
- sensitivity of ΔPEAMT to P-Cho compared with the wild-type enzyme (ΔPEAMT; 10 mM P-Cho, P=0.05): retaining twice as much of its initial activity

Molecule: CNCCO [MME]
- inhibition of PEAMT activity (in words) (PEAMT [1]): not inhibitory

Molecule: phosphatidylethanolamine [Ptd-EA]
- activity with Ptd-EA as substrate (PEAMT [2]): < 1 pkat mg^−1 protein

Molecule: NCCO [EA, ethanolamine]
- activity with EA as substrate (PEAMT [3]): < 1 pkat mg^−1 protein

Molecule: CN(C)CCO [DME]
- inhibition of PEAMT activity (in words) (PEAMT [1]): not inhibitory

Molecule: C[S+](CC[C@H](N)C(=O)[O-])C[C@H]1O[C@@H](n2cnc3c(N)ncnc32)[C@H](O)[C@@H]1O (stereo partly drawn) [AdoMet, S-adenosyl-L-methionine]
- Km (PEAMT [1]; recombinant PEAMT, substrate): 140 µM

B1: PEAMT (Spinacia oleracea) (protein)
chain: MAASAMGVLQEREVFKKYWIEHSVDLTVEAMMLDSQASDLDKVERPEVLSMLPPYEGKSVLELGAGIGRFTGELAEKASQVIALDFIESVIKKNESINGHYKNVKFMCADVTSPSLNISPNSVDIIFSNWLLMYLSDEEVERLVERMLKWLKPGGYIFFRESCFHQSGDHKRKSNPTHYREPRFYTKIFKECHMQDDSGNSYELSLIGCKCIGAYVKSKKNQNQISWLWQKVDSEDDKGFQRFLDSSQYKFNSILRYERVFGPGYVSTGGLETTKEFVSKLDLKPGQKVLDVGCGIGGGDFYMAENYDVEVVGIDLSINMISFALERSIGLKCAVEFEVADCTKKDYPENSFDVIYSRDTILHIQDKPALFRSFHKWLKPGGKVLISDYCKSAGTPSAEFAAYIRQRGYDLHDVKAYGKMLKDAGFVEVIAENRTDQFIQVLQKELDALEQEKDDFIDDFSEEDYNDIVDGWKAKLVRTTEGEQQWGLFIAKKM
notes: The PEAMT cDNA comprises a 494-residue open reading frame; made in house; host or cells: Schizosaccharomyces pombe Bx22 (leu1 cho2-) carrying pREP3-PEAMT; desalted crude extract, not purified
- Km [4]: 96 µM

B2: ΔPEAMT: truncated spinach PEAMT; native coding sequence terminates at Gly-286, plus Ile Pro Gly; SEQ ID NO:4 (protein, listed as Spinacia oleracea)
chain: MAASAMGVLQEREVFKKYWIEHSVDLTVEAMMLDSQASDLDKVERPEVLSMLPPYEGKSVLELGAGIGRFTGELAEKASQVIALDFIESVIKKNESINGHYKNVKFMCADVTSPSLNISPNSVDIIFSNWLLMYLSDEEVERLVERMLKWLKPGGYIFFRESCFHQSGDHKRKSNPTHYREPRFYTKIFKECHMQDDSGNSYELSLIGCKCIGAYVKSKKNQNQISWLWQKVDSEDDKGFQRFLDSSQYKFNSILRYERVFGPGYVSTGGLETTKEFVSKLDLKPGIPG
- PEAMT activity in the absence of P-Cho (ΔPEAMT; 50 μg protein, 10 min, 50 nmol P-EA, 170 nmol AdoMet): 200±10 pkat mg^−1 protein
- reaction product (ΔPEAMT; [5]): only [^14C]P-MME
